Data as given in article PMC11538636, “Electro‐Driven Multi‐Enzymatic Cascade Conversion of CO2 to Ethylene Glycol in Nano‐Reactor” (Advanced Science, 2024).

What was measured:
GoADH = tested on: T1, GoADH; assay: steady-state kinetics, Michaelis-Menten fit; format: biochemical, Gluconobacter oxydans; details: NADH co-substrate; free enzyme; glycolaldehyde reduction
T1 construct: gene adh; recombinant in E. coli BL21(DE3), pETDuet, C-terminal His-tag; codon-optimized gene; Zn2+ dependent

BmFADH = biological target: T2, BmFADH (Burkholderia multivorans, UniProt A0A0H3KP42); assay: NADH consumption at […] nm; format: biochemical; details: 1 mM NADH, 5 mM NaMeO2, 50 mM phosphate pH 7.5, 2 h
T2 construct: gene fdhA2; recombinant in E. coli BL21(DE3), pETDuet, C-terminal His-tag; Zn2+ dependent
T2 sequence (A0A0H3KP42 1-398): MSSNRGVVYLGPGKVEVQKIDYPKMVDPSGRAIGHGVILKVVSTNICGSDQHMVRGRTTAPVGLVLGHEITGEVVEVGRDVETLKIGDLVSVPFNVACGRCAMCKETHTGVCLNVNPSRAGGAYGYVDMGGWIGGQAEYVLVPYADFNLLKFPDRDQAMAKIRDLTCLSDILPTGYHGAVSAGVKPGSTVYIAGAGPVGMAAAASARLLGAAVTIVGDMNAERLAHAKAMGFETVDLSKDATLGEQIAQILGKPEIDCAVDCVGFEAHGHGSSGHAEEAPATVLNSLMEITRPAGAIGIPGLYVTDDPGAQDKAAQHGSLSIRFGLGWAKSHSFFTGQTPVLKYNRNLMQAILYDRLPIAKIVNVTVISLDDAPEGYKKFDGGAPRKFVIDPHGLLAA

Compound	Km (GoADH) [µM]	NADH consumption at 340 nm (BmFADH)
O=CCO [glycolaldehyde]	432	–
NC(=O)C1=CN([C@@H]2O[C@H](COP(=O)(O)OP(=O)(O)OC[C@H]3O[C@@H](n4cnc5c(N)ncnc54)[C@H](O)[C@@H]3O)[C@@H](O)[C@H]2O)C=CC1 [NADH]	–	activity of PaFDH, BmFADH, and GoADH was determined by measuring the consumed NADH
